Molecular target: T1, intracellular domain of human Tie2 (GST fusion protein) (Homo sapiens, UniProt Q02763)
T1 construct: intracellular domain of human Tie2 (amino acids 776-1124); made in house; host or cells: Baculovirus-infected insect cells (Hi5)
Experiment: Tie2 kinase assay (Tie2-TR-FRET)
Format: biochemical
Details: ATP concentration 1 mM, in some cases means of several independent determinations
Method: The Tie2-inhibitory activity of the substances according to the invention was determined with the aid of one of the Tie2-TR-FRET assays described in the sections below at an ATP concentration of 1 mM (TR-FRET=Time-Resolved Fluorescence Resonance Energy Transfer):
The enzyme used was a recombinant fusion protein of glutathione S-transferase (GST) and the intracellular domain of human Tie2 (amino acids 776-1124) which was expressed in Baculovirus-infected insect cells (Hi5) and was purified by affinity chromatography on glutathione-Sepharose. Alternatively, it is also possible to use commercially available GST-His6-Tie2 fusion protein (ProQinase GmbH, Freiburg im Breisgau, Germany). The substrate used for the kinase reaction was the biotinylated peptide biotin-Ahx-[…] (C-terminus in amide form) which is commercially available (for example from Biosyntan, Berlin, Germany).
For the assay, 50 nl of a 100-fold concentrated solution of the respective test substance in DMSO were pipetted into a black low-volume 384-well microtitre plate (Greiner Bio-One, Frickenhausen, Germany) 2 μl of a solution of the Tie2 fusion protein in assay buffer [50 mM HEPES/HCl pH 7, 10 mM MgCl2, 2.5 mM MnCl2, 1 mM dithiothreitol, 0.01% (v/v) Nonidet P-40, 0.1% (w/v) bovine serum albumin (BSA), 1× Complete EDTA-free protease inhibitor mixture (Roche)] were added, and the mixture was incubated for 15 min to allow pre-binding of the substance to the enzyme prior to the kinase reaction. The kinase reaction was then started by adding 3 μl of a solution of adenosine triphosphate (ATP, 1.67 mM→final concentration in 5 μl assay volume=1 mM) and substrate (1.67 μM→final concentration in 5 μl assay volume=1 μM) in assay buffer, and the resulting mixture was incubated for a reaction time of 60 min at 22° C. The concentration of the Tie2 fusion protein was adapted to the respective activity of the enzyme and adjusted such that the assay was carried out in the linear range. Typical concentrations were in the range of 30 ng/ml.
The reaction was stopped by addition of 5 μl of a solution of TR-FRET detection reagents [200 nM streptavidin-XL665 and 2 nM PT66-Eu chelate, a europium chelate-labelled anti-phosphotyrosine antibody (Perkin-Elmer); alternatively, it is also possible to use PT66-Tb cryptate (Cisbio Bioassays, Codolet, France)] in aqueous EDTA solution[90 mM EDTA, 0.28% (w/v) bovine serum albumin (BSA) in 50 mM HEPES pH 7.5]. The resulting mixture was incubated at 22° C. for 1 h to allow formation of the complex of the biotinylated phosphorylated substrate and the detection reagents. The amount of phosphorylated substrate was then determined by measuring the resonance energy transfer from PT66-Eu chelate to streptavidin-XL665. To this end, the fluorescence emissions at 620 nm and 665 nm after excitation at 350 nm were measured in a TR-FRET measuring instrument (for example Viewlux, Perkin-Elmer). The ratio of the emissions at 665 nm and at 620 nm was taken as a measure of the amount of phosphorylated substrate.
Usually, the test substance in question was tested on the same microtitre plate at […] different concentrations in the range from 20 μM to 0.073 nM (for example at 20 μM, 5.7 μM, 1.6 μM, 0.47 μM, 0.13 μM, 38 nM, 11 nM, 3.1 nM, 0.89 nM, 0.25 nM and 0.073 nM) in duplicate for each concentration. The dilution series were prepared prior to the assay at the stage of the 100-fold concentrated solution by serial dilution (the exact concentrations may vary depending on the pipettors used in each case). IC50 values were calculated using a 4-parameter fit, with the aid of inhouse software.
Table 1 below lists the IC50 values from this assay for individual working examples (in some cases as means of several independent individual determinations): […]

T1 sequence (Q02763 776-1124): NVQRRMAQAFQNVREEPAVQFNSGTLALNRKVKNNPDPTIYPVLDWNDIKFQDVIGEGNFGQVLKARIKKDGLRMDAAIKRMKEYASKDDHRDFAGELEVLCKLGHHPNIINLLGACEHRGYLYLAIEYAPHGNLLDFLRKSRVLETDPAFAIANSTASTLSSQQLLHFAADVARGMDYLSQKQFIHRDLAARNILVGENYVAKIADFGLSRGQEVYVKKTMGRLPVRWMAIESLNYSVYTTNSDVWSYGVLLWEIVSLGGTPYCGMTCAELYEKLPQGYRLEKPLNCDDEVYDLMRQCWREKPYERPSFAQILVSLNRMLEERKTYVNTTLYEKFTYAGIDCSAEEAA

SMILES | IC50 [nM]
Cc1ccc(NC(=O)c2cc(N3CCNCC3)cc(S(F)(F)(F)(F)F)c2)cc1-n1ccn2nc(-c3cn[nH]c3)cc12 [Example 1, N-{4-Methyl-3-[6-(1H-pyrazol-4-yl)-1H-imidazo[1,2-b]pyrazol-1-yl]phenyl}-3-(pentafluoro-λ^6-sulphanyl)-5-(piperazin-1-yl)benzamide] | 0.3
Cc1ccc(NC(=O)c2cccc(C(F)(F)F)c2)cc1-n1ccn2nc(-c3cn[nH]c3)cc12 [Example 5, N-{4-Methyl-3-[6-(1H-pyrazol-4-yl)-1H-imidazo[1,2-b]pyrazol-1-yl]phenyl}-3-(trifluoromethyl)-benzamide] | 380
Cc1ccc(NC(=O)c2cccc(C(C)(C)C)c2)cc1-n1ccn2nc(-c3cn[nH]c3)cc12 [Example 7, 3-tert-Butyl-N-{4-methyl-3-[6-(1H-pyrazol-4-yl)-1H-imidazo[1,2-b]pyrazol-1-yl]phenyl}-benzamide] | 105
Cc1ccc(NC(=O)c2cc(N3CCN(C)CC3)cc(C(C)(C)C)c2)cc1-n1ccn2nc(-c3cn[nH]c3)cc12 [Example 8, 3-tert-Butyl-5-(4-methylpiperazin-1-yl)-N-{4-methyl-3-[6-(1H-pyrazol-4-yl)-1H-imidazo[1,2-b]-pyrazol-1-yl]phenyl}benzamide] | 1.9
Cc1ccc(NC(=O)c2cc(CN3CCCC3)cc(C(C)(C)C)c2)cc1-n1ccn2nc(-c3cn[nH]c3)cc12 [Example 9, 3-tert-Butyl-N-{4-methyl-3-[6-(1H-pyrazol-4-yl)-1H-imidazo[1,2-b]pyrazol-1-yl]phenyl}-5-(pyrrolidin-1-ylmethyl)benzamide] | 6.7
Cc1ccc(NC(=O)c2cc(N3CCNCC3)cc(S(F)(F)(F)(F)F)c2)cc1-n1cc(C)n2nc(-c3cn[nH]c3)cc12 [Example 10, N-{4-Methyl-3-[3-methyl-6-(1H-pyrazol-4-yl)-1H-imidazo[1,2-b]pyrazol-1-yl]phenyl}-3-(pentafluoro-λ^6-sulphanyl)-5-(piperazin-1-yl)benzamide] | 0.3
Cc1ccc(NC(=O)c2cc(N3CCN(C)CC3)cc(S(F)(F)(F)(F)F)c2)cc1-n1cc(C)n2nc(-c3cn[nH]c3)cc12 [Example 11, N-{4-Methyl-3-[3-methyl-6-(1H-pyrazol-4-yl)-1H-imidazo[1,2-b]pyrazol-1-yl]phenyl}-3-(4-methylpiperazin-1-yl)-5-(pentafluoro-λ^6-sulphanyl)benzamide] | 0.3
COc1cc(C(=O)Nc2ccc(C)c(-n3cc(C)n4nc(-c5cn[nH]c5)cc34)c2)cc(S(F)(F)(F)(F)F)c1 [Example 13, 3-Methoxy-N-{4-methyl-3-[3-methyl-6-(1H-pyrazol-4-yl)-1H-imidazo[1,2-b]pyrazol-1-yl]-phenyl}-5-(pentafluoro-λ^6-sulphanyl)benzamide] | 1.3
Cc1ccc(NC(=O)c2cc(-n3ccnc3C)cc(C(F)(F)F)c2)cc1-n1cc(C)n2nc(-c3cn[nH]c3)cc12 [Example 14, 3-(2-Methyl-1H-imidazol-1-yl)-N-{4-methyl-3-[3-methyl-6-(1H-pyrazol-4-yl)-1H-imidazo[1,2-b]-pyrazol-1-yl]phenyl}-5-(trifluoromethyl)benzamide] | 0.4
Cc1ccc(NC(=O)c2cccc(S(F)(F)(F)(F)F)c2)cc1-n1ccn2nc(-c3cccnc3)cc12 [Example 15, N-{4-Methyl-3-[6-(pyridin-3-yl)-1H-imidazo[1,2-b]pyrazol-1-yl]phenyl}-3-(pentafluoro-λ^6-sulphanyl)benzamide] | 24
Cc1ccc(NC(=O)c2cc(N3CCNCC3)cc(S(F)(F)(F)(F)F)c2)cc1-n1ccn2nc(-c3cccnc3)cc12 [Example 17, N-{4-Methyl-3-[6-(pyridin-3-yl)-1H-imidazo[1,2-b]pyrazol-1-yl]phenyl}-3-(pentafluoro-λ^6-sulphanyl)-5-(piperazin-1-yl)benzamide] | 0.3
Cc1ccc(NC(=O)c2cc(N3CCOCC3)cc(S(F)(F)(F)(F)F)c2)cc1-n1ccn2nc(-c3cccnc3)cc12 [Example 19, N-{4-Methyl-3-[6-(pyridin-3-yl)-1H-imidazo[1,2-b]pyrazol-1-yl]phenyl}-3-(morpholin-4-yl)-5-(pentafluoro-λ^6-sulphanyl)benzamide] | 0.9
Cc1ccc(NC(=O)c2cc(O)cc(S(F)(F)(F)(F)F)c2)cc1-n1ccn2nc(-c3cccnc3)cc12 [Example 20, 3-Hydroxy-N-{4-methyl-3-[6-(pyridin-3-yl)-1H-imidazo[1,2-b]pyrazol-1-yl]phenyl}-5-(pentafluoro-λ^6-sulphanyl)benzamide] | 3.1
COc1cc(C(=O)Nc2ccc(C)c(-n3ccn4nc(-c5cccnc5)cc34)c2)cc(S(F)(F)(F)(F)F)c1 [Example 21, 3-Methoxy-N-{4-methyl-3-[6-(pyridin-3-yl)-1H-imidazo[1,2-b]pyrazol-1-yl]phenyl}-5-(pentafluoro-λ^6-sulphanyl)benzamide] | 2.1
Cc1ccc(NC(=O)c2cc(OCCN)cc(S(F)(F)(F)(F)F)c2)cc1-n1ccn2nc(-c3cccnc3)cc12 [Example 22, 3-(2-Aminoethoxy)-N-{4-methyl-3-[6-(pyridin-3-yl)-1H-imidazo[1,2-b]pyrazol-1-yl]phenyl}-5-(pentafluoro-λ^6-sulphanyl)benzamide] | 0.6
Cc1ccc(NC(=O)c2cc(OCCCN)cc(S(F)(F)(F)(F)F)c2)cc1-n1ccn2nc(-c3cccnc3)cc12 [Example 23, 3-(3-Aminopropoxy)-N-{4-methyl-3-[6-(pyridin-3-yl)-1H-imidazo[1,2-b]pyrazol-1-yl]phenyl}-5-(pentafluoro-λ^6-sulphanyl)benzamide] | 0.3
Cc1ccc(NC(=O)c2cc(OC3CNC3)cc(S(F)(F)(F)(F)F)c2)cc1-n1ccn2nc(-c3cccnc3)cc12 [Example 24, 3-(Azetidin-3-yloxy)-N-{4-methyl-3-[6-(pyridin-3-yl)-1H-imidazo[1,2-b]pyrazol-1-yl]phenyl}-5-(pentafluoro-λ^6-sulphanyl)benzamide] | 0.8
Cc1ccc(NC(=O)c2cc(OC3CCNC3)cc(S(F)(F)(F)(F)F)c2)cc1-n1ccn2nc(-c3cccnc3)cc12 (stereo not shown) [Example 25, N-{4-Methyl-3-[6-(pyridin-3-yl)-1H-imidazo[1,2-b]pyrazol-1-yl]phenyl}-3-(pentafluoro-λ^6-sulphanyl)-5-(pyrrolidin-3-yloxy)benzamide] | 1.9
Cc1ccc(NC(=O)c2cc(Cl)cc(S(F)(F)(F)(F)F)c2)cc1-n1ccn2nc(-c3cccnc3)cc12 [Example 27, 3-Chloro-N-{4-methyl-3-[6-(pyridin-3-yl)-1H-imidazo[1,2-b]pyrazol-1-yl]phenyl}-5-(pentafluoro-λ^6-sulphanyl)benzamide] | 3.1
Cc1ccc(NC(=O)c2cc(C(N)=O)cc(S(F)(F)(F)(F)F)c2)cc1-n1ccn2nc(-c3cccnc3)cc12 [Example 29, N-{4-Methyl-3-[6-(pyridin-3-yl)-1H-imidazo[1,2-b]pyrazol-1-yl]phenyl}-5-(pentafluoro-λ^6-sulphanyl)isophthalamide] | 2
Cc1cc(C(=O)Nc2ccc(C)c(-n3ccn4nc(-c5cccnc5)cc34)c2)cc(S(F)(F)(F)(F)F)c1 [Example 30, 3-Methyl-N-{4-methyl-3-[6-(pyridin-3-yl)-1H-imidazo[1,2-b]pyrazol-1-yl]phenyl}-5-(pentafluoro-λ^6-sulphanyl)benzamide] | 2
Cc1ccc(NC(=O)c2cc(CO)cc(S(F)(F)(F)(F)F)c2)cc1-n1ccn2nc(-c3cccnc3)cc12 [Example 31, 3-(Hydroxymethyl)-N-{4-methyl-3-[6-(pyridin-3-yl)-1H-imidazo[1,2-b]pyrazol-1-yl]phenyl}-5-(pentafluoro-λ^6-sulphanyl)benzamide] | 1.1

Reference: patent US20150005288A1, “SUBSTITUTED PHENYLIMIDAZOPYRAZOLES AND USE THEREOF” (Bayer Intellectual Property GmbH, priority 2012, published 2015)
